Target: T1, recombinant human POP (Homo sapiens, UniProt P48147)
T1 construct: purchased USBiological, MA
T1 sequence (P48147 1-710): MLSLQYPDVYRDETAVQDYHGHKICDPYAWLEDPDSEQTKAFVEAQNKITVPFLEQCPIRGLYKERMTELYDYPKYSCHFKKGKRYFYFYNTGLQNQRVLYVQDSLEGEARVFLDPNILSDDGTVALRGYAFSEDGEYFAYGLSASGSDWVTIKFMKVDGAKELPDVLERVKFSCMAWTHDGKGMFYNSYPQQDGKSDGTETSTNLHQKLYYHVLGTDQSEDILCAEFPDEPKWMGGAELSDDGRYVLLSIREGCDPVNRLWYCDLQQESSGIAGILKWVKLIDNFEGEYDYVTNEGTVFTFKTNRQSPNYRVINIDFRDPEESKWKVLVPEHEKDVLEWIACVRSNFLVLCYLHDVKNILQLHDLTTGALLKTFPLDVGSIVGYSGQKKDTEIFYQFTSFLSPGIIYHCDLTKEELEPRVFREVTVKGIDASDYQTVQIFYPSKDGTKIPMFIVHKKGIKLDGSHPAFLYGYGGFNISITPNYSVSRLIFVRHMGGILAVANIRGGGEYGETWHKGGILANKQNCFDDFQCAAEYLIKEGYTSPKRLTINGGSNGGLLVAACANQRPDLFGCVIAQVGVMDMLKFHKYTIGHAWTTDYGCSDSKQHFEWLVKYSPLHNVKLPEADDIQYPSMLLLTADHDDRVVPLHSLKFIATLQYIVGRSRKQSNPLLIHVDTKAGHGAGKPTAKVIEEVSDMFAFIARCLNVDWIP
Assay: POP enzyme inhibition colorimetric assay (recombinant human POP)
Type: biochemical
Conditions: 0.04 mg/ml; read-out: inhibition against human POP
Procedure: FIG. 3 illustrates the inhibition activity of FGS03 against Flavobacterium and recombinant human POP. FGS03 is tested at final concentrations of 0.02 mg/ml and 0.04 mg/ml respectively. Positive control is PE Inhibitor II, Calbiochem, USA. Each sample is tested in triplicate. Data represented as mean value with standard deviation, n=3.
The POP inhibitory activity of compound was evaluated using an enzyme inhibition assay. A colorimetric assay was set up using Flavobacterium and recombinant human POP enzymes. The POP enzyme solutions obtained from Flavobacterium (0.5 U mL^−1 giving 0.0416 units per well) and human (USBiological, MA with working concentration 0.006 mg/ml) were added to the 96-well plates containing sample extracts and phosphate buffer (100 mM, pH 7.0). The reaction was initiated with the addition of enzyme substrate, Z-Gly-Pro-4-nitroanilide (2 mM in 40% dioxane) and incubated at 30° C. for 15 minutes. Stopper buffer (2 M acetate buffer, pH 4.0 with 10% Triton-X) was added to stop the enzyme reaction. The released p-nitroanilide was determined colorimetrically with a plate reader at 414 nm. The inhibition activity was calculated using the formula:
[formula] • where blank=control without the inhibitor • OD=change in optical density during the assay.

## CCCCCCCCCCCc1cc(O)cc(O[C@H]2O[C@@H](C(=O)O)[C@@H](O)[C@H](O)[C@H]2O)c1C(=O)O [FGS03, (2R,3S,4S,5R,6R)-6-(2-carboxy-5-hydroxy-3-undecylphenoxy)-3,4,5-trihydroxytetrahydro-2H-pyran-2-carboxylic acid]
  inhibition at 40 µg/mL: 80%

From patent US20240409572A1, “COMPOUND FOR TREATING NEURODEGENERATIVE DISEASES AND ITS ISOLATION METHOD THEREOF” (SARAWAK BIODIVERSITY COUNCIL, priority 2020, published 2024)
